Measured values from patent publication US11092602B2, “Methods and compositions relating to proteasome inhibitor resistance” (Whitehead Institute for Biomedical Research, priority 2015, dated 2021).

How the values were obtained:
[1] = tested on: protein degradation and protein synthesis; assay: Translation and degradation assays (3H-phenylalanine); assay type: cell-based, human; details: 10 nM bortezomib
Experimental: Next we examined the impact of reducing PSMD2 levels on protein degradation and protein synthesis. Cells were labeled with tritiated-phenylalanine for 24 hrs. We then separately measured the rates at which labeled proteins were degraded through the proteasome and through the lysosome.
To measure rates of protein synthesis, cells were pulse labeled with tritiated-phenylalanine for 1 hr.
For measuring overall rate of synthesis, cells were pretreated with 10 nM Bortezomib for 20 hours, then incorporation of ^3H-phenylalanine was measured for 1 h. The rate of synthesis was described as counts incorporated into cell proteins per hour and per μg of total cell proteins. When working with T47D cells, knockdown of PSMD2 was induced for 3 days with doxycycline before bortezomib treatment. For measuring overall rates of protein degradation, pulse-labeling with ^3H-phenylalanine for 24 hours was done before the bortezomib treatment as previously described (Zhao et al., 2007).

[2] = molecular target: 20S proteasome (Homo sapiens, UniProt P28074); assay: Native gel analysis of proteasomal complexes with Suc-LLVY-AMC substrate overlay; assay type: biochemical; details: 12 nM bortezomib for 24 hours
Source text: We first separated 20S and 26S proteasomes on native gels and examined effects on the relative levels of 26S and 20S proteasome complexes. In cells with reduced levels of either PSMC5 or PSMD2, 26S proteasome complexes were reduced and 20S proteasome complexes were increased (FIGS. 2E and 2F). These changes persisted in the presence of bortezomib (FIGS. 2E and 2F). Next, we assayed their activity with a fluorescently labeled substrate.
Proteasomal samples were loaded on a nondenaturing 4% polyacrylamide gel using the protocol described previously (Tsvetkov et al., 2014). Gels were either overlaid with Suc-LLVY-AMC (50 μM) for assessment of proteasomal activity or transferred to nitrocellulose membranes where immunoblotting specific for proteasomal subunits was conducted. Proteasomal activity was assessed by measuring the hydrolysis of Suc-LLVY-AMC by substrate overlay assays in native polyacrylamide gels with 50 mM Tris-HCl, pH 7.8, 5 mM MgCl2, 1 mM DTT, 2 mM ATP, 50 μM Suc-LLVY-AMC peptide, and incubating the gels at 37° C. for 30-60 min. Activity was visualized by transilluminated by a UV light and photographed with BIORAD Chemidoc imaging system.

[3] = tested on: relapsed multiple myeloma; assay: Phase 2 and 3 clinical trials of bortezomib in relapsed multiple myeloma, stratified by sigma score; assay type: in vivo, human
Source text: We analyzed gene expression data from 135 patients with relapsed multiple myeloma who participated in Phase II or III trials of bortezomib (˜2007; Mulligan, G., Mitsiades, et al. (2007) Gene expression profiling and correlation with outcome in clinical trials of the proteasome inhibitor bortezomib. Blood 109, 3177-3188) and determined the sigma score for each cancer. The sigma score for each cancer (prior to treatment) was computed by comparing the expression of each 19S subunit (except PSMC4, which was not included in the analysis for technical reasons) in each cancer with the average expression of that subunit in the total set of cancers (reference level) and determining the number of standard deviations by which each expression level differed from the reference level.
Methods details: re-treatment gene expression data from relapsed multiple myeloma patients undergoing clinical trials with bortezomib were downloaded from GSE9782 (34). Gene expression data was RMA normalized and log transformed. Sigma scores were calculated from all probes. […] For each group, the time to relapse from bortezomib treatment was plotted as a Kaplan-Meier plot. P-value was calculated using Wilcoxon test.

[4] = tested on: T47D cells; assay: Selleck anti-cancer compound library screen, PSMD2 KD versus control T47D cells (resazurin); assay type: cell-based, human; details: 4 concentrations, 72 hours
Experimental: After 48 hours the cells were collected, counted, and plated at 1000 cells/well in 384 well plates in duplicates for each cell line. Compounds from the Selleck Chemicals anti-cancer compound library β49 drugs in 4 concentrations; […]) were pinned the next day and viability was measured after 72 hours by the reduction of Resazurin (Ex=530 nm, Em=590 nm).
The effect of each drug on viability of cells was calculated by averaging the duplicate experiments. The data is plotted in FIG. 16 as the log2 of the ratio of viability of PSMD2 KD versus control cells (log2 (shPSMD2/Control)).

[5] = tested on: stress-response transcripts; assay: RNA-seq gene expression profiling of PSMD2 knockdown and control (shLacZ) cells; assay type: cell-based, human; details: control cells; 12 nM bortezomib for 24 hours
Experimental: Sequence data confirmed that PSMD2 mRNA levels were reduced by ˜50% in both lines. We examined basal gene expression and the effects of bortezomib treatment on these cells, comparing them to cells carrying a control lacZ shRNA construct.
RNA was extracted from triplicate samples and RNA libraries were prepared for sequencing by NEBNext Ultra RNA Library Prep Kit for Illumina (New England BioLabs, Ipswich, Mass.), including the removal of large and small RNA, synthesis of cDNA, and construction of cDNA libraries. Libraries were barcoded using NEBNext Multiplex Oligos for Illumina (NEB). Libraries were sequenced using Illumina HiSeq 2500, with paired-end 100 bp reads. Paired-end reads were aligned to UCSC human transcriptome 19 (hg19) using TopHat (Bowtie v2.0.9). Alignment quality and read distribute was assessed via SAMtools (v0.1.19) (Li et al., 2009). Transcript assembly was conducted using cufflinks (v2.2.1). […] RNA sequencing data have been deposited in the NCBI Sequence Read Archive under accession number: PRJNA281613.
Genes differentially expressed upon PSMD2 knockdown in either the presence or absence of bortezomib treatment were determined as follows (FIG. 3E): For each gene in the matrix described above, the values were normalized to the average expression in the LacZ control cells. […]

[6] = cells with transiently reduced PSMD2, 20 hours

Which “rates of proteolysis by the lysosome” value ([1]; 20-hour treatment) does the source give for `CC(C)C[C@H](NC(=O)[C@H](Cc1ccccc1)NC(=O)c1cnccn1)B(O)O` [bortezomib] here?
The value was “remained unchanged”.

And the “inhibition of proteasome degradation” value [1, 6]?
The value was “strongly counteracted”.

What about the “suppression of protein synthesis” value [1, 6] of the same compound?
The value was “strongly counteracted”.

What about the “rate of protein degradation” value ([1]; control cells, 20-hour treatment) of the same compound?
Its value is “sharply decreased”.

What about the “rate of protein synthesis” value ([1]; control cells, 20 hours) of the same compound?
The value was “sharply decreased”.

And the 20S proteasome activity ([2]; cells with reduced PSMC5 or PSMD2)?
Its 20S proteasome activity is “maintained a significant level of 20S proteasome activity”.

And the 20S proteasome function ([2]; control cells)?
The 20S proteasome function was “nearly complete inactivation of 20S proteasome function”.

And the time to progression ([3]; 34 patients with reduced expression of at least one 19S subunit versus patients without, p-value=0.0086)?
Its time to progression is “shortened time to progression”.

And the progression-free survival ([3]; patients with 3-Sigma disease versus sigma score less than 3)?
The progression-free survival was “Reduced Progression-Free Survival”.

What about the “effectiveness over dexamethasone control” value ([3]; patients with reduced expression of 19S proteasome subunit(s)) of the same compound?
Its value is “no significant effectiveness over the dexamethasone control”.

And the “selective effect on viability, PSMD2 KD versus control cells (log2 (shPSMD2/Control))” value [4]?
The value was “selectively reduce viability of control cells versus PSMD2 KD cells”.

And the transcriptional response [5]?
The transcriptional response was “sharp increase in stress-response transcripts”.
